Measured values as given in patent EP0450936A1, “Monoclonal antibody to avermectins” (MERCK & CO. INC., priority 1990, dated 1991).

What was measured:
[1] = tested on: monoclonal antibody 3A6-1 Mab; assay: competitive inhibition liquid phase RIA (monoclonal antibody specificity); format: binding, mouse; details: 50 ng inhibitor, 500 pg 3H-Avm B1a; for % ^3H-Tritium bound: antibody amount binding about 50% of label (Mab alone: 42)
Method: (§1) Specificity is determined by a competitive inhibition liquid phase RIA. The specificity is determined by contacting a known amount of labelled antigen (³H-Avm B1a) with constant amounts of other avermectins or ivermectin and then contacting this mixture with a constant amount of antibody specific for the labelled antigen. The concentration of antibody is an amount that is sufficient to bind about 50% of the labelled antigen employed in the assay.
as §1, with “B1a), 500 pg” for “B1a)”

[2] = detection of avermectin in mouse serum by competitive liquid phase RIA after intraperitoneal injection; format: in vivo, BALB/c mice; details: for Concentration per tube: serum at 1:10 dilution
Source text: Monoclonal antibody specifically reactive with a common epitope or common epitopes contained within the compounds of the avermectin family and derivatives thereof are used serologically to identify and quantitate avermectins, including ivermectin, in animal body fluids and cell-free extracts. Body fluids include, but are not limited to, blood, serum, plasma, milk, urine, cerebrospinal fluid and the like. Cell-free extracts as used herein are defined as the fluids derived from disrupted cells. The avermectins can be identified and the concentration determined by a variety of immunoassays or serological assays which include, but are not limited to: immunoradiometric assays, employing labelled antibodies, Miles and Hales, Nature 219: 186 […] or a sandwich variant according to Addison and Hales, Hormone. Meta. Res. 3: 59 (1971); enzyme immunoassays, employing competitive assays with antigen-enzyme conjugates according to the method of Van Weeman and Schours, F.E.B.S. Lett. 15: 232 (1971) or enzyme-labelled antibody assays according to the procedure of Envall and Perlman, Immunochem. 8: 871 (1971) or a variant of the enzyme-labelled antibody assay which employs detection by a second antibody according to the process of Hammarstrom et al., Proc. Natl. Acad. Sci. USA 72: 1528 (1975) or non-competitive sandwich (ELISA) methods, see Nakamura et al., in Handbood of Experimental Immunology, Vol. 1, Immunochemistry, D. M. Weir, ed. 4th Edition (1986), Blackwell Scientific Publications, Oxford, pp. 27.1-27.20; or any other assay which will determine the concentration or presence of avermectin. The preferred assay is a competitive inhibition liquid phase radioimmuno assay (RIA). The avermectin concentration in animal body fluids is determined by diluting the fluid in an appropriate assay buffer. An appropriate assay buffer may include, but is not limited to, buffered saline, phosphate buffer, phosphate buffered saline, Dulbecco's phosphate buffered saline, Dulbecco's calcium-and-magnesium-free buffered saline and Tris buffer containing about 0.1 % CHAPSO with Tris-CHAPSO being preferred. The labelled antigen (³H-Avm) is diluted to a concentration of about 200 pg to about 700 pg, with about 500 pg being preferred, and contacted with an anti-avermectin monoclonal antibody at a concentration that will bind about 25% to about 75% of the labelled antigen, with about 50% being preferred. To the labelled antigen-antibody mixture is added an appropriate concentration or dilution of the unknown or sample containing avermectin or the standard containing a known amount of avermectin. The reactants are incubated at about 4° C to about 30° C, with about 25° C being preferred, for about 30 minutes to about 4 h, with about 2.5 h being preferred. All dilutions are made in the assay buffer and all determinations are made in duplicate. Non-antibody-bound radioactive avermectin is removed from the reaction mixture by chromatographic, precipitation, immunoprecipitation or adsorption techniques with adsorption of the unbound antigen onto dextran-coated activated charcoal being preferred. The dextran-coated charcoal is prepared by suspending activated charcoal, USP, at about 3% (w/v) in about 10 mM phosphate buffer, pH about 7.5, containing about 0.25% (w/v) dextran, about 60,000 to about 90,000 average mol. wt., with about 70,000 average mol. wt. being preferred. The dextran-coated activated charcoal is washed and resuspended in assay buffer and stored at a concentration of about 3%. About 1 ml of the dextran-coated activated charcoal suspension (dilution predetermined) is added to each sample and the samples are incubated for about 10 min at about 4° C. The charcoal is pelleted by centrifugation at about 3500 rpm for about 15 min. The supernatant quid is collected and the radioactivity counted in a liquid scintillation counter. […]

| Compound | % Inhibition [1] [%] | % ^3H-Tritium bound [1] [%] | Concentration per tube ([2]; 15 min after 10 mg per Kg IP in sesame oil) [ng] | Concentration per tube ([2]; 30 min after 10 mg per Kg IP in sesame oil) [ng] | Concentration per tube ([2]; 60 min after 10 mg per Kg IP in sesame oil) [ng] | concentration at 0.25 h ([2]; mouse, serum, 10 mg/kg, 15 min after 10 mg per Kg IP in sesame oil, corrected for volume (50 µl) and dilution (1:10)) [ng/mL] | concentration at 0.5 h ([2]; mouse, serum, 10 mg/kg, 30 min after 10 mg per Kg IP in sesame oil, corrected for volume (50 µl) and dilution (1:10)) [ng/mL] | concentration at 1 h ([2]; mouse, serum, 10 mg/kg, 60 min after 10 mg per Kg IP in sesame oil, corrected for volume (50 µl) and dilution (1:10)) [ng/mL] |
| --- | --- | --- | --- | --- | --- | --- | --- | --- |
| 22, 23-dihydroavermectin B₁ [Ivm] | 63 | 16 | – | – | – | – | – | – |
| CC[C@H](C)[C@H]1O[C@@]2(C[C@@H]3C[C@@H](C/C=C(\C)[C@@H](O[C@H]4C[C@H](OC)[C@@H](O[C@H]5C[C@H](OC)[C@@H](O)[C@H](C)O5)[C@H](C)O4)[C@@H](C)/C=C/C=C4\CO[C@@H]5[C@H](O)C(C)=C[C@@H](C(=O)O3)[C@]45O)O2)C[C@H](O)[C@@H]1C [B2a, avermectin B2a] | 58 | 18 | – | – | – | – | – | – |
| CCC(C)[C@H]1O[C@]2(C=C[C@@H]1C)C[C@@H]1C[C@@H](C/C=C(\C)[C@@H](O[C@H]3C[C@H](OC)[C@@H](O[C@H]4C[C@H](OC)[C@@H](O)[C@H](C)O4)[C@H](C)O3)[C@@H](C)/C=C/C=C3\CO[C@@H]4[C@H](O)C(C)=C[C@@H](C(=O)O1)[C@]34O)O2 (stereo partly drawn) [B1a, avermectin B1a] | 53 | 20 | 2.4 | 13 | 42 | 480 | 2600 | 8400 |
